The target of one experiment is Cbl-b (Homo sapiens, UniProt Q13191). Nature of the experiment: Cbl-b inhibition assay (Cbl-b activity assay, FRET, Biological Example 1; 100 mM NaCl, 60 nM Src kinase). Particulars: upper bound stated in text lists; read-out: IC50 values in the Cbl-b inhibition assay of Biological Example 1. It counts as biochemical. The procedure, abridged:
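FRET read-out: loss of signal marks inhibition. Mix = biotin-Avi-Cbl-b (N-term), Src kinase, UbcH5B-Ub(Bodipy-FL, irreversible conjugate), streptavidin-Tb, assay buffer.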

The subject of experiment [1] is T-cell. Nature of the experiment: IL-2 secretion from T-cells co-stimulated with anti-CD3 and anti-CD28 antibody (Biological Example 2). Particulars: Homo sapiens, T-cell, fold change over baseline, primary human total T-cells, read-out: IL-2 secretion Anti-CD3/Anti-CD28 stimulation; for fold induction at 0.3 µM: 0.3 μM Cbl-b inhibitor; for fold induction at 1 µM: 1 μM Cbl-b inhibitor; for fold induction at 4 µM: 4 μM Cbl-b inhibitor. Format: cell-based, human. The procedure, abridged:
(§1)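 Values are fold-change over baseline: readings (IL-2 release, CD25 staining) from inhibitor-treated T-cells divided against untreated cells […]. No detailed procedure stated.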

Experiment [2] concerns T-cell. Nature of the experiment: IL-2 secretion from T-cells stimulated with anti-CD3 antibody alone (Biological Example 2). Format: cell-based, human. Particulars: T-cell, fold change over baseline, primary human total T-cells, read-out: IL-2 secretion Anti-CD3 stimulation; for fold induction at 1 µM: 1 μM Cbl-b inhibitor; for fold induction at 8 µM: 8 μM Cbl-b inhibitor.
For experiment [3], the system named is T-cell. Nature of the experiment: CD25 cell surface staining on T-cells co-stimulated with anti-CD3 and anti-CD28 antibody (Biological Example 2). Particulars: Homo sapiens, T-cell, fold change over baseline, primary human total T-cells, read-out: CD25 staining Anti-CD3/Anti-CD28 stimulation; for fold induction at 0.3 µM: 0.3 μM Cbl-b inhibitor; for fold induction at 1 µM: 1 μM Cbl-b inhibitor; for fold induction at 4 µM: 4 μM Cbl-b inhibitor. It counts as cell-based, human. The procedure, abridged: as §1

In experiment [4] the test system is T-cell. Nature of the experiment: CD25 cell surface staining on T-cells stimulated with anti-CD3 antibody alone (Biological Example 2). Format: cell-based, human. Particulars: T-cell, fold change over baseline, primary human total T-cells, read-out: CD25 staining Anti-CD3 stimulation; for fold induction at 1 µM: 1 μM Cbl-b inhibitor; for fold induction at 8 µM: 8 μM Cbl-b inhibitor.

As usually defined, the IC50 is the concentration needed to halve the response being measured.

Cbl-b, sequence (Q13191 36-427): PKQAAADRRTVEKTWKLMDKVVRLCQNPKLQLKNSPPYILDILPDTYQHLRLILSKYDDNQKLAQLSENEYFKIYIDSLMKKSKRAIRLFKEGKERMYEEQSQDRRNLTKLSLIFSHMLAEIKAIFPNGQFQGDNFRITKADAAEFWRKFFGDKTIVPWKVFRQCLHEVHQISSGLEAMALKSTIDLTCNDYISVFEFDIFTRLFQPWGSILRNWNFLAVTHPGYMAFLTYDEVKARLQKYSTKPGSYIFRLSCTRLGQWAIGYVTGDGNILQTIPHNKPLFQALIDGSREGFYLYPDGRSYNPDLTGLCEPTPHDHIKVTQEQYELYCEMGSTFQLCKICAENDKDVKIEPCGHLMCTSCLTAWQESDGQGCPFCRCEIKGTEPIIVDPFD

With `CC(=O)N1CCN(c2ccc3cnc(C(=O)Nc4cccc([C@H](C)Cc5nncn5C)c4)cc3c2)CC1` [Compound 211, (R)-6-(4-acetylpiperazin-1-yl)-N-(3-(1-(4-methyl-4H-1,2,4-triazol-3-yl)propan-2-yl)phenyl)isoquinoline-3-carboxamide 2,2,2-trifluoroacetate], the 50% inhibitory concentration (IC50) on Cbl-b was not above 100 nM. Also, in the experiment on T-cell [1], the fold induction at 0.3 µM is 2.51 to 5, the fold induction at 1 µM was in the range of 5 to 7.5 and the fold induction at 4 µM is more than 7.5. In the experiment with T-cell [2], the fold induction at 1 µM is more than 0.201 and the fold induction at 8 µM was more than 0.201. In the experiment with T-cell [3], the fold induction at 0.3 µM was 1.01 to 1.3, the fold induction at 1 µM is 1.01 to 1.3 and the fold induction at 4 µM is 1.51 to 1.75. In the experiment on T-cell [4], the fold induction at 1 µM lay in the range of 0.601 to 0.8 and the fold induction at 8 µM is more than 1.

For `C[C@H](Cc1nncn1C)c1cccc(NC(=O)c2cc(C(=O)N3CC[C@H](O)C3)cc(C(F)(F)F)n2)c1` [Compound 220, 4-((S)-3-hydroxypyrrolidine-1-carbonyl)-N-(3-((R)-1-(4-methyl-4H-1,2,4-triazol-3-yl)propan-2-yl)phenyl)-6-(trifluoromethyl)picolinamide], the half-maximal inhibitory concentration (IC50) at Cbl-b is not above 100 nM. In the experiment with T-cell [1], the fold induction at 0.3 µM was 2.51 to 5, the fold induction at 1 µM is more than 7.5 and the fold induction at 4 µM was more than 7.5. Further, in the experiment with T-cell [2], the fold induction at 1 µM is more than 0.201 and the fold induction at 8 µM is more than 0.201. Besides, in the experiment with T-cell [3], the fold induction at 0.3 µM was in the range of 1.31 to 1.5, the fold induction at 1 µM lay in the range of 1.51 to 1.75 and the fold induction at 4 µM was more than 1.76. For the same compound, in the experiment with T-cell [4], the fold induction at 1 µM was more than 1 and the fold induction at 8 µM was more than 1.

`C[C@H](Cc1nncn1C)c1cccc(N2Cc3c(cccc3C(F)(F)F)C2=O)c1` [Compound 255a, (R)-2-(3-(1-(4-methyl-4H-1,2,4-triazol-3-yl)propan-2-yl)phenyl)-4-(trifluoromethyl)isoindolin-1-one]: on Cbl-b, the half-inhibitory concentration (IC50) is not above 100 nM. In the experiment on T-cell [1], the fold induction at 0.3 µM lay within 1.01 to 2.5, the fold induction at 1 µM was in the range of 2.51 to 5 and the fold induction at 4 µM was 5 to 7.5. In addition, in the experiment on T-cell [2], the fold induction at 1 µM was in the range of 0.051 to 0.1 and the fold induction at 8 µM was more than 0.201. Further, in the experiment on T-cell [3], the fold induction at 0.3 µM lay in the range of 1.31 to 1.5, the fold induction at 1 µM was 1.51 to 1.75 and the fold induction at 4 µM was more than 1.76. In the experiment with T-cell [4], the fold induction at 1 µM was 0.601 to 0.8 and the fold induction at 8 µM was more than 1.

Turning to `C[C@H](Cc1nncn1C)c1cccc(N2Cc3c(cc(C(=O)N4CC[C@H](O)C4)cc3C(F)(F)F)C2=O)c1` [Compound 274, 6-((S)-3-hydroxypyrrolidine-1-carbonyl)-2-(3-((R)-1-(4-methyl-4H-1,2,4-triazol-3-yl)propan-2-yl)phenyl)-4-(trifluoromethyl)isoindolin-1-one], on Cbl-b, the half-inhibitory concentration (IC50) is not above 100 nM. Besides, in the experiment on T-cell [1], the fold induction at 0.3 µM was 1.01 to 2.5, the fold induction at 1 µM lay within 2.51 to 5 and the fold induction at 4 µM is more than 7.5. Besides, in the experiment with T-cell [2], the fold induction at 1 µM was in the range of 0.151 to 0.2 and the fold induction at 8 µM is more than 0.201. In addition, in the experiment on T-cell [3], the fold induction at 0.3 µM is 1.01 to 1.3, the fold induction at 1 µM is 1.01 to 1.3 and the fold induction at 4 µM lay in the range of 1.31 to 1.5. Also, in the experiment on T-cell [4], the fold induction at 1 µM fell in the range of 0.801 to 1 and the fold induction at 8 µM was more than 1.

On to `C[C@H](Cc1nncn1C)c1cccc(N2Cc3c(cc(C(=O)N4C[C@@H](O)C[C@H]4C)cc3C(F)(F)F)C2=O)c1` [Compound 275, 6-((2R,4S)-4-hydroxy-2-methylpyrrolidine-1-carbonyl)-2-(3-((R)-1-(4-methyl-4H-1,2,4-triazol-3-yl)propan-2-yl)phenyl)-4-(trifluoromethyl)isoindolin-1-one], for which the half-inhibitory concentration (IC50) at Cbl-b is not above 100 nM. Further, in the experiment with T-cell [1], the fold induction at 0.3 µM fell in the range of 2.51 to 5, the fold induction at 1 µM was in the range of 5 to 7.5 and the fold induction at 4 µM was more than 7.5. In the experiment on T-cell [2], the fold induction at 1 µM was more than 0.201 and the fold induction at 8 µM was more than 0.201. Further, in the experiment with T-cell [3], the fold induction at 0.3 µM lay in the range of 1.31 to 1.5, the fold induction at 1 µM is 1.51 to 1.75 and the fold induction at 4 µM was more than 1.76. Besides, in the experiment with T-cell [4], the fold induction at 1 µM was 0.801 to 1 and the fold induction at 8 µM was more than 1.

Regarding `C[C@H](Cc1nncn1C)c1cccc(N2Cc3c(cc(C(=O)N4CC(O)C4)cc3C(F)(F)F)C2=O)c1` [Compound 276, (R)-6-(3-hydroxyazetidine-1-carbonyl)-2-(3-(1-(4-methyl-4H-1,2,4-triazol-3-yl)propan-2-yl)phenyl)-4-(trifluoromethyl)isoindolin-1-one], at Cbl-b, the IC50 is not above 100 nM. Moreover, in the experiment with T-cell [1], the fold induction at 0.3 µM is 1.01 to 2.5, the fold induction at 1 µM was in the range of 2.51 to 5 and the fold induction at 4 µM is more than 7.5. For the same compound, in the experiment on T-cell [2], the fold induction at 1 µM was 0.051 to 0.1 and the fold induction at 8 µM was in the range of 0.151 to 0.2. In the experiment on T-cell [3], the fold induction at 0.3 µM fell in the range of 1.01 to 1.3, the fold induction at 1 µM fell in the range of 1.01 to 1.3 and the fold induction at 4 µM was in the range of 1.31 to 1.5. Besides, in the experiment on T-cell [4], the fold induction at 1 µM is 0.801 to 1 and the fold induction at 8 µM is more than 1.

Take `C[C@H](Cc1nncn1C)c1cccc(N2Cc3c(cc(C(=O)N4CC[C@H](O)C4)cc3C3CC3)C2=O)c1` [Compound 277, 4-cyclopropyl-6-((S)-3-hydroxypyrrolidine-1-carbonyl)-2-(3-((R)-1-(4-methyl-4H-1,2,4-triazol-3-yl)propan-2-yl)phenyl)isoindolin-1-one]: on Cbl-b, the IC50 is not above 100 nM. Moreover, in the experiment on T-cell [1], the fold induction at 0.3 µM fell in the range of 1.01 to 2.5, the fold induction at 1 µM is 2.51 to 5 and the fold induction at 4 µM lay within 2.51 to 5. Further, in the experiment with T-cell [2], the fold induction at 1 µM lay in the range of 0.051 to 0.1 and the fold induction at 8 µM was 0.101 to 0.15. Further, in the experiment with T-cell [3], the fold induction at 0.3 µM is 1.01 to 1.3, the fold induction at 1 µM fell in the range of 1.01 to 1.3 and the fold induction at 4 µM lay in the range of 1.31 to 1.5. Further, in the experiment on T-cell [4], the fold induction at 1 µM lay in the range of 0.801 to 1 and the fold induction at 8 µM is more than 1.

With `Cn1cnnc1CC1(c2cccc(N3Cc4c(cccc4C(F)(F)F)C3=O)c2)CC1` [Compound 299, 2-(3-(1-((4-methyl-4H-1,2,4-triazol-3-yl)methyl)cyclopropyl)phenyl)-4-(trifluoromethyl)isoindolin-1-one], the concentration for half-maximal inhibition (IC50) on Cbl-b is not above 100 nM. Besides, in the experiment with T-cell [1], the fold induction at 0.3 µM was 2.51 to 5, the fold induction at 1 µM fell in the range of 2.51 to 5 and the fold induction at 4 µM lay in the range of 5 to 7.5. Also, in the experiment on T-cell [2], the fold induction at 1 µM fell in the range of 0.051 to 0.1 and the fold induction at 8 µM was more than 0.201. Moreover, in the experiment with T-cell [3], the fold induction at 0.3 µM is less than 1, the fold induction at 1 µM was 1.01 to 1.3 and the fold induction at 4 µM lay within 1.01 to 1.3. For the same compound, in the experiment with T-cell [4], the fold induction at 1 µM is more than 1 and the fold induction at 8 µM was more than 1.

For `Cn1cnnc1CC(C)(C)c1cccc(N2Cc3c(cccc3C(F)(F)F)C2=O)c1` [Compound 300, 2-(3-(2-methyl-1-(4-methyl-4H-1,2,4-triazol-3-yl)propan-2-yl)phenyl)-4-(trifluoromethyl)isoindolin-1-one], the 50% inhibitory concentration (IC50) at Cbl-b is not above 100 nM. Moreover, in the experiment with T-cell [1], the fold induction at 0.3 µM fell in the range of 1.01 to 2.5, the fold induction at 1 µM lay within 2.51 to 5 and the fold induction at 4 µM was more than 7.5. Moreover, in the experiment with T-cell [2], the fold induction at 1 µM is more than 0.201 and the fold induction at 8 µM was more than 0.201. Further, in the experiment on T-cell [3], the fold induction at 0.3 µM was in the range of 1.01 to 1.3, the fold induction at 1 µM is 1.01 to 1.3 and the fold induction at 4 µM lay in the range of 1.51 to 1.75. In the experiment with T-cell [4], the fold induction at 1 µM was in the range of 0.801 to 1 and the fold induction at 8 µM was more than 1.

With `Cn1cnnc1CC1(c2cccc(N3Cc4c(cccc4C(F)(F)F)C3=O)c2)COC1` [Compound 301, 2-[3-[3-[(4-methyl-1,2,4-triazol-3-yl)methyl]oxetan-3-yl]phenyl]-4-(trifluoromethyl)isoindolin-1-one], the IC50 on Cbl-b is not above 100 nM. Further, in the experiment on T-cell [1], the fold induction at 0.3 µM fell in the range of 1.01 to 2.5, the fold induction at 1 µM is 2.51 to 5 and the fold induction at 4 µM was more than 7.5. In addition, in the experiment on T-cell [2], the fold induction at 1 µM is 0.051 to 0.1 and the fold induction at 8 µM lay in the range of 0.101 to 0.15. Moreover, in the experiment with T-cell [3], the fold induction at 0.3 µM lay within 1.01 to 1.3, the fold induction at 1 µM fell in the range of 1.01 to 1.3 and the fold induction at 4 µM fell in the range of 1.31 to 1.5. Also, in the experiment with T-cell [4], the fold induction at 1 µM was in the range of 0.801 to 1 and the fold induction at 8 µM was more than 1.

(Values after US20220324835A1 (Nurix Therapeutics, Inc., priority 2018, published 2022).)
